The values below come from PMC5971063 (ACS infectious diseases, 2017).

Converted amounts (≈) assume the structure as drawn.

The subject of one data set is rabbit erythrocytes. The experiment in a line: Hemolysis assay. The class given is cell-based. The note with it: 100 µM.
In data set [1] the test system is E. cloacae ATCC 13047. The experiment in a line: Single-point antibacterial screen.
The next data set relates to P. aeruginosa ATCC 27853. Briefly: Single-point antibacterial screen.
The subject of data set [2] is S. marcescens ATCC 13880. The experiment in a line: Single-point antibacterial screen.
In the next data set the test system is E. faecalis ATCC 29212. Briefly: Single-point antibacterial screen.
The subject of data set [3] is P. mirabilis HM-752. Briefly: Single-point antibacterial screen.
Data set [4] deals with S. epidermidis ATCC 12384. The experiment in a line: Single-point antibacterial screen.
In data set [5] the test system is E. coli ATCC 25922. Briefly: Single-point antibacterial screen.
The subject of data set [6] is MRSA A960649 NR-45914. The experiment in a line: Single-point antibacterial screen.
The test system of data set [7] is C. freundii 4747 CFAA. The experiment in a line: Single-point antibacterial screen.
In data set [8] the test system is MRSA ATCC 33591. The experiment in a line: Single-point antibacterial screen.
Data set [9] relates to L. monocytogenes ATCC 19115. Briefly: Single-point antibacterial screen.
Data set [10] deals with E. coli S30 Extract System (prokaryotic translation). Briefly: Cell-free in vitro translation assay, prokaryotic system. In kind it is biochemical. The conditions noted are these: 1.25 µM–2.4 nM.
The next data set concerns A. baumannii ATCC 19606. The experiment in a line: Single-point antibacterial screen.
In data set [11] the test system is S. flexneri 2457 NR-517. The experiment in a line: Single-point antibacterial screen. The class given is cell-based, Shigella flexneri.
A short description of the next data set: Hemolysis assay. The class given is cell-based, rabbit. The note with it: rabbit, rabbit erythrocytes (2% w/w).
In another data set the test system is K. pneumoniae NR-151410. The experiment in a line: Single-point antibacterial screen.
In the next data set the test system is E. coli A-site. The conditions noted are these: concentration at which F–NEO emission is 50% of maximum.
The subject of data set [12] is rabbit reticulocyte lysate (eukaryotic translation). Briefly: Cell-free in vitro translation assay, eukaryotic system. In kind it is biochemical. The note with it: 4.2 µM to 5 nM.
Data set [13] deals with C. freundii 4747 CFAA. Briefly: MIC by double-dilution method.
Data set [14] deals with mitochondrial A-site (RNA, rRNA) GGCGUCACCCCUUCGGGACAAGUCGCC
Briefly: fluorescent displacement assay. The conditions noted are these: 50 mM Na+; F–NEO displaced (0.1 µM 1:1 complex), 10 mM HEPES, 0.4 mM EDTA, pH 7.

The test system of data set [15] is P. mirabilis HM-752. The experiment in a line: MIC by double-dilution method.
For data set [16], the system named is human cytosolic A-site (RNA, rRNA) GGCGUCGCUCCUUCGGGAAAAGUCGCC
Briefly: fluorescent displacement assay. The note with it: 50 mM Na+; F–NEO displaced (0.1 µM 1:1 complex), 10 mM HEPES, 0.4 mM EDTA, pH 7.

Data set [17] concerns MRSA ATCC 33591. The experiment in a line: MIC by double-dilution method. The note with it: MRSA 33591.
The subject of data set [18] is S. epidermidis ATCC 12384. The experiment in a line: MIC by double-dilution method.
Data set [19] relates to E. cloacae ATCC 13047. Briefly: MIC by double-dilution method.
The target of a further data set is human cytosolic A-site. The note with it: F–NEO displacement.
For data set [20], the system named is E. coli ATCC 25922. Briefly: MIC by double-dilution method.
The test system of data set [21] is S. flexneri 2457 NR-517. The experiment in a line: MIC by double-dilution method. In kind it is cell-based, Shigella flexneri.
Data set [22] relates to MRSA A960649 NR-45914. Briefly: MIC by double-dilution method.
For data set [23], the system named is E. coli A-site (RNA, rRNA) GGCGUCACACCUUCGGGUGAAGUCGCC
The experiment in a line: fluorescent displacement assay. The conditions noted are these: 50 mM Na+; F–NEO displaced (0.1 µM 1:1 complex), 10 mM HEPES, 0.4 mM EDTA, pH 7.

The test system of data set [24] is S. marcescens ATCC 13880. The experiment in a line: MIC by double-dilution method.
The target in the next data set is mitochondrial A-site. The note with it: F–NEO displacement.
Data set [25] concerns L. monocytogenes ATCC 19115. The experiment in a line: MIC by double-dilution method.

The term inhibition denotes the share of the control response that was lost under treatment. As usually defined, the IC50 is the concentration that inhibits the measured activity by half. Broadly, the MIC is the smallest concentration in the dilution series that meets the test's criterion for growth inhibition.

Take Triton X-100: the “% hemolysis” value in the data set on rabbit erythrocytes was found to be 100.0%.

Regarding `NCc1ccc2c(c1)C(=O)c1ccccc1C2=O` [AMA], the inhibition at 6.3 µM was 0% with E. cloacae ATCC 13047 [1] (Enterobacter cloacae, ATCC13047, read-out: Inhibition of bacterial growth); 5% with P. aeruginosa ATCC 27853 (Pseudomonas aeruginosa, ATCC27853, read-out: Inhibition of bacterial growth); 0% in the data set on S. marcescens ATCC 13880 [2] (Serratia marcescens, ATCC13880, read-out: Inhibition of bacterial growth); 27% in the data set with E. faecalis ATCC 29212 (Enterococcus faecalis, ATCC29212, read-out: Inhibition of bacterial growth); 19% with P. mirabilis HM-752 [3] (Proteus mirabilis, HM752, read-out: Inhibition of bacterial growth); 0% in [4] (Staphylococcus epidermidis, ATCC12384, read-out: Inhibition of bacterial growth). In addition, the inhibition at 6.3 µM was determined as 2% with E. coli ATCC 25922 [5] (Escherichia coli, ATCC25922, read-out: Inhibition of bacterial growth); 0% with MRSA A960649 NR-45914 [6] (Staphylococcus aureus, MRSA, read-out: Inhibition of bacterial growth); 4% in the data set on C. freundii 4747 CFAA [7] (Citrobacter freundii, 4747CFAA, read-out: Inhibition of bacterial growth); 0% in the data set on MRSA ATCC 33591 [8] (Staphylococcus aureus, ATCC33591|MRSA, read-out: Inhibition of bacterial growth); 37% in data set [9] (Listeria monocytogenes, ATCC19115, 48 h, read-out: Inhibition of bacterial growth); 0% in the data set with A. baumannii ATCC 19606 (Acinetobacter baumannii, ATCC19606, read-out: Inhibition of bacterial growth). Further, the inhibition at 6.3 µM worked out at 9% with S. flexneri 2457 NR-517 [11] (Shigella flexneri, 2457NR517, read-out: Inhibition of bacterial growth) and 0% in the data set with K. pneumoniae NR-151410 (Klebsiella pneumoniae, NR151410, read-out: Inhibition of bacterial growth). The “Inhibition of prokaryotic translation (in words)” value in [10] is recorded as “did not inhibit in vitro translation”. In the data set “Hemolysis assay”, this compound had a hemolysis at 1 h, 100 µM of 10 ± 4.6%.

As for `NC[C@@H]1O[C@H](O[C@H]2[C@@H](O)[C@H](O[C@@H]3[C@@H](O)[C@H](N)C[C@H](N)[C@H]3O[C@H]3O[C@H](CN)[C@@H](O)[C@H](O)[C@H]3N)O[C@@H]2CO)[C@H](N)[C@@H](O)[C@@H]1O` [NEO, neomycin], the “Inhibition of bacterial growth” value turned out to be 100% with E. cloacae ATCC 13047 [1] (E. cloacae, 6.3 µM); 11% in the data set on P. aeruginosa ATCC 27853 (P. aeruginosa, 6.3 µM); 100% in the data set on S. marcescens ATCC 13880 [2] (S. marcescens, 6.3 µM); 39% with E. faecalis ATCC 29212 (E. faecalis, 6.3 µM); 96% with P. mirabilis HM-752 [3] (P. mirabilis, 6.3 µM); 95% in data set [4] (S. epidermidis, 6.3 µM). Further, the “Inhibition of bacterial growth” value is 100% with E. coli ATCC 25922 [5] (E. coli, 6.3 µM); 0% in the data set with MRSA A960649 NR-45914 [6] (MRSA A960649, 6.3 µM); 97% in the data set with C. freundii 4747 CFAA [7] (C. freundii, 6.3 µM); 0% in the data set on MRSA ATCC 33591 [8] (MRSA 33591, 6.3 µM); 100% in [9] (L. monocytogenes, 6.3 µM, 48 h incubation); 91% in the data set on A. baumannii ATCC 19606 (A. baumannii, 6.3 µM). Moreover, the “Inhibition of bacterial growth” value in the data set with S. flexneri 2457 NR-517 [11] (S. flexneri, 6.3 µM) was 100%; with K. pneumoniae NR-151410 (K. pneumoniae, 6.3 µM), 0%. Further, the IC50 with E. coli A-site was 87.3 ± 5.9 nM; in data set [14] it was 87.1 ± 8.3 nM; in [16] it was 76.5 ± 13.2 nM; at human cytosolic A-site it was 76.5 ± 13.2 nM; in data set [23], 87.3 ± 5.9 nM; at mitochondrial A-site it was 87.1 ± 8.3 nM. Besides, in [12], the “Inhibition of eukaryotic translation” value was “inhibition of translation is not observed”. The minimum inhibitory concentration (MIC) in the data set on C. freundii 4747 CFAA [13] worked out at 0.78 µM (≈ 0.479 µg/mL); against P. mirabilis HM-752 [15], 6.3 µM (≈ 3.87 µg/mL); in the data set with MRSA ATCC 33591 [17], 400 µM (≈ 246 µg/mL); in [18] it was 1.6 µM (≈ 0.983 µg/mL); in the data set with E. cloacae ATCC 13047 [19], 3.25 µM (≈ 2 µg/mL); in the data set on E. coli ATCC 25922 [20], 1.56 µM (≈ 0.959 µg/mL). In addition, the MIC against S. flexneri 2457 NR-517 [21] is reported as 6.3 µM (≈ 3.87 µg/mL); against MRSA A960649 NR-45914 [22], 400 µM (≈ 246 µg/mL); against S. marcescens ATCC 13880 [24] it was 3.2 µM (≈ 1.97 µg/mL); in [25] it was 1.6 µM (≈ 0.983 µg/mL). For the same compound, in the data set on rabbit erythrocytes, the “% hemolysis” value is 7.0 ± 0.4%.
